For data set [1] the following is noted: in vivo; cited from earlier work.
Data set [2] has as its system mice. Further details: method as in PMID 30571123. The settings on record: s.c.; cited from earlier work.
In data set [3] the test system is mice. The settings on record: 15.5 µmol/kg s.c. chronic, day 1 to day 4; cited from earlier work.
The subject of data set [4] is mice. The conditions noted are these: cited from earlier work. From the text: This is particularly important given the current rise in the abuse of prescription opioids, commonly MOR agonists. The MOR is established to play a major role in analgesia, but also on the undesirable opioid side effect of reward, with deletion of the gene encoding MOR (Oprm1) completely blocking opioid analgesia and reward behavior in rodents. To this aim, we used the conditioned place preference (CPP) paradigm, as described previously. The CPP is a w ...

For data set [5], the target named is human mu-opioid receptor (MOR), stably expressed in CHO cells (CHO-hMOR), in membranes (human) (UniProt P35372).
Chain of human mu-opioid receptor (MOR), stably expressed in CHO cells (CHO-hMOR), in membranes (human) (P35372 whole entry): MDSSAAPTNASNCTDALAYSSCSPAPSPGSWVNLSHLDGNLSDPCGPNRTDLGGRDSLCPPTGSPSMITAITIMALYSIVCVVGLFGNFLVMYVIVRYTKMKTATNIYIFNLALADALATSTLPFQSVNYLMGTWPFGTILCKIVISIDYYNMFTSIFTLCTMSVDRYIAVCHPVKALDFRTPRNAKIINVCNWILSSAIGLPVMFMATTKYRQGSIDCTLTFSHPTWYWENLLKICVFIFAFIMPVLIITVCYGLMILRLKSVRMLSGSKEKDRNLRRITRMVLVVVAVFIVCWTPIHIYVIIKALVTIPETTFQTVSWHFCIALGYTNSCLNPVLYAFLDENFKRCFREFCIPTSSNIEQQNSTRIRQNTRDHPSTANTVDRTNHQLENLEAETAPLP

As for `COc1ccc2c3c1O[C@H]1C(=O)CC[C@@]4(O)[C@@H](C2)N(C)CC[C@]314` [oxycodone], the “Sedation and locomotor activity” value in data set [1] is “known to produce sedation and to reduce locomotor activity”.

Turning to `CN1CC[C@]23c4c5ccc(O)c4O[C@H]2[C@@H](O)C=C[C@H]3[C@H]1C5` [morphine], in the data set with mice [2], the “ED50, writhing assay (mass)” value was 0.437 mg/kg and the “ED50, writhing assay (molar)” value is reported as 1.36 µmol/kg. Further, the “Spontaneous locomotor activity of morphine” value with mice [3] was “significant hyperlocomotion from day 1 to day 4”. Besides, the “Sedation and locomotor activity” value in data set [1] was “known to produce sedation and to reduce locomotor activity”. In addition, in the data set on mice [4] (15.5 µmol/kg daily, vs saline), the “Rewarding effect of morphine, CPP” value is given as “significant place preference compared to the saline group”. In addition, the “CPP with narcotic drugs” value in the data set with mice [4] (mice) is on record as “produce CPP”.

For “[D-Ala2,N-Me-Phe4,Gly-ol5]enkephalin (DAMGO) (peptide)”, in data set [5], the [35S]GTPγS binding (G protein activation), membranes from CHO-hMOR cells: EC50 was 35 nM and the [35S]GTPγS binding (G protein activation), membranes from CHO-hMOR cells: Emax (%, the reference set to 100) is 100%.

In data set [5], “KGFF09 (H-Dmt-DArg-Aba-βAla-Bpa-Phe-NH2) (peptide)” gave a [35S]GTPγS binding (G protein activation), membranes from CHO-hMOR cells: EC50 of 8.28 nM and a [35S]GTPγS binding (G protein activation), membranes from CHO-hMOR cells: Emax (% of DAMGO) of 92%.
